This is an account of results in PMC10368370, “Development of o-aminobenzamide salt derivatives for improving water solubility and anti-undifferentiated gastric cancer” (Frontiers in Pharmacology, 2023).

Where two headings read alike, the source gives them in different places. Some results are limits rather than exact numbers.

The test system of one series is HGC-27 xenograft. Briefly: HGC-27 tumor xenograft model. Type of series: in vivo, BALB/c nude mice. To be noted: p.o., bid, 14 days, HGC-27 xenograft.
The test system of the next series is MCF-7. Kind of series: MTT cytotoxicity / anti-proliferation assay. Type of series: cell-based. To be noted: Homo sapiens, MCF7, 72 h, MCF-7, MTT, read-out: IC50, cancer cell viability.
For a further series, the system named is SK-Hep-1. Kind of series: MTT cytotoxicity / anti-proliferation assay. Type of series: cell-based. Conditions: SK-Hep-1, MTT, 72 h; read-out: IC50, cancer cell viability.
A further series relates to HCT-116. Briefly: MTT cytotoxicity / anti-proliferation assay. Type of series: cell-based. To be noted: Homo sapiens, HCT-116, 72 h, HCT-116, MTT, read-out: IC50, cancer cell viability.
The test system of another series is MDA-MB-231. Briefly: MTT cytotoxicity / anti-proliferation assay. To be noted: Homo sapiens, MDA-MB-231, 72 h, MDA-MB-231, MTT, read-out: IC50, cancer cell viability. Type of series: cell-based.
For another series, the system named is MDA-MB-468. Briefly: MTT cytotoxicity / anti-proliferation assay. It is filed as cell-based. To be noted: Homo sapiens, MDA-MB-468, 72 h, MDA-MB-468, MTT, read-out: IC50, cancer cell viability.
A further series relates to AGS. More on the design: method as in Feng et al., 2022. To be noted: previous work, ref Feng et al., 2022; cited from earlier work.
Another series in a line: Pharmacokinetic study. It is filed as in vivo, SD rats. To be noted: SD rats; for Cmax: read-out: Cmax. As for the experimental part:
7–8-week Male SD rats weighing 180–220 g were allowed for this experiment. The rats were fasted 12 h except for water. The solution was administered to rats by intravenous injection of 10% ethanol +10% solutol as solvent and intragastric injection of 5% castor oil +5% solutol as solvent. The dose concentration was 8 mg/mL for intravenous injection and 10 mg/mL for gavage.
Twelve male SD rats were divided into 4 groups with 3 rats in each group. Group 1 was F8-intravenous injection group, the dose was 20 mg/kg; Group 2 was F8- intragastric administration group, the dose was 100 mg/kg; Group 3 was F8·2HCl-intragastric administration group, the dose was 100 mg/kg. Blank blood was collected before administration, and blood was collected at predetermined time points after administration:
Intravenous injection group: before administration, 2 min, 5 min, 15 min, 30 min, 1 h, 2 h, 4 h, 8 h, 12 h, 24 h. Intragastric administration group: Before administration, 5 min, 15 min, 30 min, 1 h, 2 h, 4 h, 6 h, 8 h, 12 h, 24 h. About 0.5 mL of blood was collected and placed in an EDTA-K2 tube at […]. The plasma was centrifuged and stored at −80°C. The samples were detected by liquid-mass spectrometry analysis system. The chromatographic column used was ODS-C18 (4.6 × 50 mm, 3 µm). The chromatographic conditions were as follows: Mobile phase A is aqueous phase, […] (including 0.1% formic acid); Mobile phase B is organic, 95% acetonitrile (containing 0.1% formic acid). Flow rate of 0.4 mL/min, column temperature: room temperature, according to the drug plasma concentration data, calculated pharmacokinetic parameters using DAS 2.0 software.
After oral administration, drugs need to go through four stages, namely, absorption, distribution, metabolism and excretion. However, the changes in solubility of drugs after salting only affect the absorption stage. Since absorption is accompanied by a dissolution process, the water solubility and dissolution rate of drugs are the main factors that determine their absorption, and then affect their oral bioavailability ([Elder et al., 2013]). Under the stimulation of cell activity and increased solubility, pharmacokinetic experiments were carried out to understand the drug exposure and provide a basis for further druggability of compound F8. In this study, compound F8 and F8·2HCl were administered in two different ways: tail vein injection (20 mg/kg) and gavage (100 mg/kg), and pharmacokinetic parameters were measured in Sprague-Dawley (SD) rats (Figures 3, 4).

The test system of a further series is HCC-1806. Kind of series: MTT cytotoxicity / anti-proliferation assay. Conditions: Homo sapiens, HCC1806, 72 h, HCC-1806, MTT, read-out: IC50, cancer cell viability. It is filed as cell-based.
The subject of another series is HGC-27 cells. Briefly: MTT cytotoxicity / anti-proliferation assay. Type of series: cell-based, human. To be noted: Homo sapiens, HGC-27, 72 h, HGC-27, MTT, read-out: IC50, cancer cell viability. As to the method: Undifferentiated human gastric cancer cell line (HGC-27) was purchased from the China Center for Type Collection (CCTCC, China) and used with 10% Foetal Bovine Serum (FBS, Gemini, Bio-Product, CA, United States), 1% penicillin streptomycin (PS) and 89% 1,640 medium ([…]) for culture. All cells were incubated at 37°C in a constant temperature incubator containing 95% air and 5% CO2.
To evaluate the cytotoxicity of F8 and related organic salts on HGC-27 cells, MTT analysis was performed. HGC-27 cells were digested with trypsin, then cells were spread into 96-well plates at a density of 3,000 cells/well and incubated for 12–16 h. After 12 h, the medium in 96-well plates was replaced with compounds containing 1, 0.5, 0.25, 0.125, 0.062, 0.0312 μM for another 72 h. Three days later, 20 μL MTT solution was added and incubated at 37°C for 4 h. Then 150 μL DMSO solution was added to each well after the fluid was removed, and the absorbance was detected by microplate reader. The compound dissolved in DMSO was added to the cell medium so that the final concentration of DMSO was less than 0.4%.
Infinite proliferation is one of the most prominent features of cancer cells, therefore, we evaluated the anti-proliferation activity of compounds F8 and related organic salts against human gastric carcinoma HGC-27 via MTT assay.

The test system of a further series is GES-1. On the set-up: method as in Feng et al., 2022. To be noted: GES-1 normal cells, previous work; ref Feng et al., 2022; cited from earlier work.
For another series, the system named is HCC-1937. Kind of series: MTT cytotoxicity / anti-proliferation assay. Conditions: Homo sapiens, HCC1937, 72 h, HCC-1937, MTT, read-out: IC50, cancer cell viability. It is filed as cell-based.
The nature of series [1]: Solubility in aqueous solution (pure water, normal saline). It is filed as physicochemical.
Another series concerns HuH7. Kind of series: MTT cytotoxicity / anti-proliferation assay. Conditions: 72 h, read-out: IC50, cancer cell viability. It is filed as cell-based.
The subject of another series is MGC-803. On the set-up: method as in Feng et al., 2022. To be noted: MGC-803, previous work; ref Feng et al., 2022; cited from earlier work.
The mark [2] stands for this setting: male, Sprague-Dawley, rat, plasma, iv, 20 mg/kg.
Setting [3] is: male, Sprague-Dawley, rat, plasma, oral, 100 mg/kg, 100 mg/kg, route ip (methods: intragastric).

Description for HGC-27 xenograft: 4-week-old male BALB/c nude mice weighing 18g–22 g were injected with 100 μL HGC-27 cells (2 × 10^6 cells) to establish an undifferentiated gastric cancer model.
(A) Tumor volumes plotted as mean ± SEM. (B) Mice weight curve during treatment plotted as mean ± SD. (C,D) Tumor weight and size on the final day.

Turning to `N#CC1(c2ccc(NC(=O)c3cccnc3NCc3ccncc3)cc2)CCCC1` [Apatinib, apatinib, reference compound], the “tumor growth inhibition (TGI)” value with HGC-27 xenograft (37.5 mg/kg) was determined as 50.0%.

For `O=C(NCc1ccc(NC(=O)c2cc(F)ccc2N2CCCC2)cc1)OCc1cccnc1` [F8], the IC50 (usually the concentration at which inhibition is half-maximal) with MCF-7 was 43.5 ± 0.36 µM; with SK-Hep-1 it was 1.65 ± 0.15 µM; with HCT-116 it was 4.89 ± 0.35 µM; with MDA-MB-231, 53.8 ± 0.59 µM; in the series on MDA-MB-468, 1.45 ± 0.12 µM; in the series on AGS, 23.3 µM. Further, the IC50 with HCC-1806 is 21.1 ± 0.74 µM; in the series with HGC-27 cells it was 0.26 ± 0.03 µM; with GES-1 it was above 100 µM; in the series on HCC-1937, 47.05 ± 0.07 µM; in the series with HuH7, 2.35 ± 0.29 µM; in the series with MGC-803, 10.7 µM. Also, the “tumor growth inhibition (TGI)” value with HGC-27 xenograft (75 mg/kg) was found to be 52.8%. Besides, the Tmax (commonly the time at which the peak concentration occurs) is 0.19 h in the series “Pharmacokinetic study” (100 mg/kg, route ip (methods: intragastric), 100 mg/kg) and 0.03 h in the series “Pharmacokinetic study” (male, Sprague-Dawley, rat, plasma, iv, 20 mg/kg, 20 mg/kg, iv, read-out: Tmax). Moreover, the peak plasma concentration in “Pharmacokinetic study” (oral administration 100 mg/kg, 100 mg/kg) was 0.4 µg/mL. Further, the AUC(0-inf) (as a rule, total exposure, with the tail of the curve extrapolated) is 6990 ng·h/mL in the series “Pharmacokinetic study” (setting [2]) and 1130 ng·h/mL in “Pharmacokinetic study” (setting [3]). Moreover, the figures for the half-life in the series “Pharmacokinetic study” (setting [2]) and in the series “Pharmacokinetic study” (setting [3]) were 3.09 h and 2.66 h, respectively. Besides, the Cmax (usually the peak of the concentration-time curve) in “Pharmacokinetic study” (male, Sprague-Dawley, rat, plasma, iv, 20 mg/kg, 20 mg/kg, iv) came out at 12100 ng/mL; in “Pharmacokinetic study” (setting [3]), 400 ng/mL. In addition, the bioavailability – broadly, dose-corrected exposure relative to a reference, in per cent – in “Pharmacokinetic study” (male, Sprague-Dawley, rat, plasma, oral, 100 mg/kg, oral 100 mg/kg vs iv 20 mg/kg, read-out: bioavailability) worked out at 3.23%. In addition, the AUC(0-t) (usually the area under the concentration-time curve up to a stated or last time point) in “Pharmacokinetic study” (male, Sprague-Dawley, rat, plasma, po, 100 mg/kg, area under the concentration-time curve (AUC0-t), oral administration 100 mg/kg, heading: area under the concentration-time curve) was around 1130 ng·h/mL. Further, the “solubility in normal saline” value in [1] (normal saline, compared with pure water) is listed as “not much different from pure water”. Besides, in [1] (pure water), the “Solubility in aqueous solution” value was “less than 1 mg/mL”.
